These results are taken from patent publication US20090214696A1, “Lycopene Incorporation Into Egg Yolks” (priority 2005, published 2009).

Structures are written as SMILES. Where two headings read alike, the source gives them in different places.

The conditions of data set [1]: acute toxicity, mice; cited from earlier work.
Data set [2] can be described thus: Roche yolk color score of eggs from hens fed lycopene (Example 1 trial). As to conditions: 65, 257 or 650 mg lycopene/kg diet vs 0 mg, 15 days, p<0.05. The class given is in vivo, White Leghorn laying hens. The source says: (§1) The purpose of this trial was to examine the ability of the laying hen to deposit lycopene into the egg yolk for the purpose of supplementing human diets with additional lycopene. Control egg-laying hens were fed a 100 gram per bird basal diet for 15 days described in Table 1. Test hens were fed the basal diet supplemented with varying amounts of lycopene.
The California Polytechnic State University Animal Care and Use Committee approved all protocols. Using a completely randomized design, first-cycle White Leghorn (Hyline W36 strain, 23 wks old) laying hens from the Cal Poly University flock were randomly assigned to one of three dietary lycopene levels. Birds were fed a basal diet formulated to meet or exceed all nutrient requirements for laying hens (National Research Council 1994 Nutrient requirements of Poultry, Ninth Revised Edition, National Academy Press, Washington, D.C.) plus either 0, 65, 257, or 650 mg lycopene/kg diet; the lycopene provided was the all-trans isomer. Dietary levels were chosen based on the amount of lycopene contained in an uncooked 100 g tomato, as well as data concerning the absorption of lutein by laying hens (Leeson, S. and Caston, L. 2004 Poultry Science 83:1709-1712). Lycopene was supplied in a 5% powder form attached to a gelatin molecule. […]

The nature of data set [3]: Study 3: yolk and plasma lycopene/lutein by UV/VIS spectrophotometer. The class given is in vivo, Second Cycle Hyline W36 Hens. An excerpt:
(§2) Commercial laying hen diet (corn, soybean, from NuWest) was supplemented with lycopene and lutein (DSM). Second Cycle Hyline W36 Hens were housed in standard lay cages. Dependant Variables: Yolks and Plasma. Lipid Extraction was done as previously described (Koutsos at al. 2003 J Nutr 133:1132-1138). A UV/VIS spectrophotometer was use to measure absorbance at 464 nm for Lutein and 352 nm for Lycopene. For Studies 2 and 3, the Roche Colour Score was taken of egg yolks using a blind analysis. The following statistics were calculated: ANOVA for main effect of diet+days on diet and interactions and t-test for differences between means. Results were significant at p<0.05.
(§3) In Study 3, 5 hens were housed per cage and 1 cage received treatment for 15 d on diet at 100 g diet/bird*d. Lycopene levels were increased and dispersed in H2O: Diet 1: Negative Control+3000 ml H2O; Diet 2: Negative Control+880 mg lycopene/kg diet+3000 ml H2O; Diet 3: Negative Control+1285 mg lycopene/kg diet+3000 ml H2O; Diet 4: Negative Control +2570 mg lycopene/kg diet+3000 ml H2O; Diet 5: Negative Control+3855 mg lycopene/kg diet+3000 ml H2O; Diet 6: Negative Control+5140 mg lycopene/kg diet+3000 ml H2O; Diet 7: Negative Control+6425 mg lycopene/kg diet+3000 ml H2O; Diet 8: Diet 5+7.8 mg Lutein/kg diet; Diet 9: Diet 7+7.8 mg Lutein/kg diet.

Data set [4] can be described thus: Study 2: Roche Yolk Colour Fan. As to conditions: 880 or 5140 mg lycopene/kg diet or 7.8 mg Lutein/kg diet dispersed in H2O, 19 d. The class given is in vivo, Second Cycle Hyline W36 Hens.
From the text: as §2
(§4) In Study 2, 5 hens were housed per cage and 3 cages were given treatment for 19 d on a diet at 100 g diet/bird*d. Lycopene and Lutein levels were increased and dispersed in H2O: Diet 1: Negative Control+3000 ml H2O; Diet 2: Negative Control+880 mg lycopene/kg diet +3000 ml H2O; Diet 3: Negative Control+5140 mg lycopene/kg diet+3000 ml H2O; Diet 4: Negative Control+7.8 mg Lutein/kg diet+3000 ml H2O. The Roche Yolk Colour Fan was used (FIG. 4, 5). […] Diet had no effect on Yolk Lutein and/or Lycopene (p>0.20 for all). Diet on Plasma lycopene had no effect (p=0.17). Plasma Lutein+Lycopene had no effect (p=0.07). Diet on Plasma Lutein: (p=0.04).

The nature of data set [5]: Study 1: Roche color fan of egg yolks. The class given is in vivo, second cycle laying hens (Hyline W36). As to conditions: 0, 1.0 and 5.7 mg lycopene/bird*day, after 18 d.
Data set [6] can be described thus: Study 3: Roche Yolk Colour Fan. The class given is in vivo, Second Cycle Hyline W36 Hens. As to conditions: control diet vs diets >1285 mg Lycopene, 15 d.
From the text: as §2, §3

For data set [7] the following is noted: acute toxicity, rats; cited from earlier work.
Data set [8] in a line: Yolk lycopene concentration by HPLC in eggs from hens fed lycopene (Example 1 trial). It is filed as in vivo, White Leghorn laying hens.
From the text: as §1
The California Polytechnic State University Animal Care and Use Committee approved all protocols. Using a completely randomized design, first-cycle White Leghorn (Hyline W36 strain, 23 wks old) laying hens from the Cal Poly University flock were randomly assigned to one of three dietary lycopene levels. Birds were fed a basal diet formulated to meet or exceed all nutrient requirements for laying hens (National Research Council 1994 Nutrient requirements of Poultry, Ninth Revised Edition, National Academy Press, Washington, D.C.) plus either 0, 65, 257, or 650 mg lycopene/kg diet; the lycopene provided was the all-trans isomer. Dietary levels were chosen based on the amount of lycopene contained in an uncooked 100 g tomato, as well as data concerning the absorption of lutein by laying hens (Leeson, S. and Caston, L. 2004 Poultry Science 83:1709-1712). Lycopene was supplied in a 5% powder form attached to a gelatin molecule. In order for lycopene to be absorbed from this source, water (60° C.) was used to disperse the lycopene prior to dietary addition.
Hens were housed in commercial-type cages (n=3 cages/diet, 4 birds/cage, 135 sq. inches/bird) with ad libitum access to water. Hens were fed their assigned diets at 100 g/bird*day for 15 days. Eggs were gathered daily, and after 15 days of dietary feeding, analysis of egg lycopene levels were completed by Roche color score (a standardized set of color swatches corresponding to a number from 1-15) and by HPLC analysis (DSM International, Basel Switzerland).

Data set [9] in a line: Study 2: yolk and plasma lycopene/lutein by UV/VIS spectrophotometer. It is filed as in vivo, Second Cycle Hyline W36 Hens.
From the text: as §2, §4

Data set [10] in a line: Study 1: yolk and plasma lycopene/lutein by UV/VIS spectrophotometer. It is filed as in vivo, second cycle laying hens (Hyline W36). As to conditions: Diet 4: 48 mg lycopene + 6.5 mg Lutein/kg diet, 19 d. On the procedure: Lycopene is a carotenoid with potential anti-cancer functions. […] Therefore, second cycle laying hens (Hyline W36) were examined for their ability to absorb dietary lycopene and incorporate lycopene into egg yolks. A completely randomized design was used in which 3 levels of dietary lycopene (0, 1.0 and 5.7 mg/bird*day) or lycopene +lutein (5.7 mg lycopene+0.8 mg lutein/bird*day) were incorporated into the birds normal diet. Birds were housed in commercial cages with ad libitum access to water (n=3 cages/diet; 5 birds/cage), and were fed 120 g diet/bird*day. […] Future trials will examine increased dietary lycopene levels and routes of administration.
as §2, with “p<0.05. […]” for “p<0.05.”

For data set [11] the following is noted: egg vs vegetable sources; cited from earlier work.

As to `CC(C)=CCC/C(C)=C/C=C/C(C)=C/C=C/C(C)=C/C=C/C=C(C)/C=C/C=C(C)/C=C/C=C(\C)CCC=C(C)C` [lycopene], the LD50 in [1] is 3000 mg lycopene/kg body weight. Besides, in [2], the “Roche yolk color score” value is listed as “significantly greater yolk color score”. Besides, the “Yolk Lycopene” value in [3] (effect of diet, Study 3, p<0.01, Diets 2, 3 = 880, 1285 mg lycopene/kg diet) is “Diet 2, 3>1, 4, 5, 6, 8, 9”. Further, the “Yolk Lutein+Lycopene” value in data set [3] (effect of diet, Study 3, p=0.94) is “no effect”. For the same compound, in data set [3] (in vivo), the “Plasma Lutein and/or Lycopene” value is “no effect”. Also, in data set [4], the “Roche Colour Fan score” value came to 5140 mg>0 mg. In data set [5], the “Egg yolk pigmentation (Roche color fan)” value is on record as “no detectable change in pigmentation”. Also, the “Yolk pigment (Roche color scores)” value in data set [6] is on record as “consistent difference in yolk pigment”. The LD50 in data set [7] is reported as 10,000 mg/kg body weight. For the same compound, in data set [8] (257 or 650 mg lycopene/kg diet vs 65 mg/kg diet, 15 days, p<0.05), the “Yolk lycopene levels (HPLC)” value is “significantly greater lycopene levels”. In addition, the concentration at 15 days in data set [8] (female, White Leghorn (Hyline W36), chicken (laying hen), egg yolk, oral, based upon HPLC data, large egg, read-out: Maximal concentration of yolk lycopene (converted)) is 4710 ng/g. Further, the “Dietary level for optimal lycopene incorporation into egg (regression analysis)” value in [8] (regression of yolk lycopene on dietary lycopene) came to 420 mg/kg diet. In [9] (in vivo), the “Plasma Lutein+Lycopene” value is reported as “no effect”, the Plasma lycopene result is on record as “no effect” and the “Yolk Lycopene” value is recorded as “no effect”.

Turning to `CC1=C[C@H](O)CC(C)(C)[C@H]1/C=C/C(C)=C/C=C/C(C)=C/C=C/C=C(C)/C=C/C=C(C)/C=C/C1=C(C)C[C@@H](O)CC1(C)C` [lutein], the Yolk lutein result in data set [10] (p<0.05) was “increased”; in data set [9] (effect of diet, Study 2, p>0.20), “no effect”. Also, in data set [10] (p=0.36), the Plasma lutein entry is recorded as “no increase”. Besides, the “Roche Colour Fan score” value in data set [4] was “no effect”. Further, in data set [11], the “Absorbance from egg relative to absorbance from vegetable sources” value is recorded as “approximately 2.12 times”.
